{"source": "paper PMC3792051", "about": "“Polyenylpyrrole Derivatives Inhibit NLRP3 Inflammasome Activation and Inflammatory Mediator Expression by Reducing Reactive Oxygen Species Production and Mitogen-Activated Protein Kinase Activation” (PLoS ONE, 2013)", "key": {"[1]": {"system": "LPS-activated J774A.1 cells", "assay": "NLRP3 and proIL-1β expression by Western blot", "type": "cell-based, mouse", "conditions": "J774A.1, 1-40 µM 30 min before LPS 6 h", "procedure": "Cells were washed twice with ice-cold phosphate-buffered saline (PBS) and lysed on ice for 5 min with lysis buffer (20 mM Tris-HCl, pH 7.5, 150 mM NaCl, 1 mM Na 2EDTA, 1 mM EGTA, 1% Triton X-100, 2.5 mM sodium pyrophosphate, 1 mM beta-glycerophosphate, 1 mM Na 3VO4, 1 µg/ml of leupeptin, 1 mM PMSF, protease inhibitor cocktail). The lysate was then centrifuged at 12,000 x g at 4 °C for 10 min and the pellet discarded. […]\nFigure 4 Effect of compound 1h on NLRP3 inflammasome activation in LPS+ATP-activated J774A.1 macrophages. (A) J774A.1 macrophages (1 × 10^6/ml; 1 ml) or (B) peritoneal macrophages (1 × 10^5/ml; 1 ml) were incubated with 10-40 µM compound 1h or DMSO for 30 min, then LPS (1 µg/ml) was added and incubation continued for 5.5 h, then the cells were stimulated with ATP (5 mM) for an additional 30 min, then IL-1β in the culture medium was measured by ELISA (A, upper panel; B) and levels of active caspase-1 (p10) (A, lower panel) measured by Western blotting. […] In (E), J774A.1 macrophages (1 × 10^6/ml; 1 ml) were incubated for 30 min with DMSO or 1-40 µM compound 1h, then LPS (1 µg/ml) was added and incubation continued for 6 h, then expression of NLRP3 and proIL-1β was measured by Western blotting. […]"}, "[2]": {"system": "LPS-activated RAW 264.7 macrophages", "assay": "Intracellular ROS production (DCF fluorescence), LPS-induced", "type": "cell-based, murine", "conditions": "RAW 264.7, 30 min pretreatment; compound 1h 20 µM, NAC 10 mM", "procedure": "Intracellular ROS production was measured by detecting the fluorescence intensity of the 2’, 7’-dichlorofluorescein, the oxidation product of 2’, 7’-dichlorofluorescein diacetate (Molecular Probes, Eugene, OR). In one study, RAW 264.7 macrophages (5 × 10^5/ml; 0.1 ml) were incubated with vehicle, compound 1h (20 µM), or NAC (10 mM) for 30 min, then 2’, 7’-dichlorofluorescein diacetate (2 µM) was added for 30 min, then LPS was added for the indicated time. In another, J774A.1 macrophages (5 × 10^5/ml; 0.1 ml) were incubated with LPS (1 µg/ml) for 6 h, then vehicle, compound 1h (20 µM), or DPI (25 µM) was added for 30 min. 2’, 7’-dichlorofluorescein diacetate (2 µM) was then added for 30 min before incubation with ATP (5 mM) for the indicated time; while, in another, the order of addition of compound1h/DPI and LPS was reversed. The fluorescence intensity of 2’, 7’-dichlorofluorescein was detected at an excitation wavelength of 485 nm and an emission wavelength of 530 nm on a microplate absorbance reader (Bio-Rad Laboratories, Inc).\nTo test whether compound 1h exerted its anti-inflammatory effect on LPS-activated cells by downregulation of ROS production, intracellular ROS production in LPS-activated RAW 264.7 macrophages was measured.\nFigure 5 Effect of compound 1h on ROS production and MAPK phosphorylation in LPS-activated macrophages. […]"}}, "data": [{"smiles": "O=c1cc(O)cc(/C=C/C=C/C=C/C=C/c2[nH]ccc2Cl)o1", "note": "[compound 1h]", "values": [{"measurement": "LPS-induced proIL-1β expression", "setting": "[1]", "result": "inhibited LPS-induced proIL-1β expression in a dose-dependent fashion"}, {"measurement": "NLRP3 protein expression", "setting": "[1]", "result": "increased NLRP3 expression"}, {"measurement": "LPS-stimulated ROS production", "setting": "[2]", "result": "reduced LPS-stimulated ROS production"}]}]}
